Patent US9676782B2, “Substituted pyrazolo[1,5-a]pyrazines as negative allosteric modulators of metabotropic glutamate receptor 3” (Vanderbilt University, priority 2014, dated 2017)
Blank lines part the entries; values can stand above or below the compound they belong to.

Legend:
rat mGlu3 = rat mGlu3 (Rattus norvegicus (Rat), UniProt P31422); assay: mGlu3 Ca2+ flux assay; assay type: cell-based; settings: for IC50: NAM potency, decrease of glutamate EC80 response, >30,000 = no measurable activity, >10,000 = no plateau, read-out: rat mGlu3 IC50; for remaining activity at 30 µM: amplitude of response at 30 μM test compound as % of maximal response to glutamate, read-out: rat mGlu3 Glu max (%)
rat mGlu3, sequence (P31422 23-879): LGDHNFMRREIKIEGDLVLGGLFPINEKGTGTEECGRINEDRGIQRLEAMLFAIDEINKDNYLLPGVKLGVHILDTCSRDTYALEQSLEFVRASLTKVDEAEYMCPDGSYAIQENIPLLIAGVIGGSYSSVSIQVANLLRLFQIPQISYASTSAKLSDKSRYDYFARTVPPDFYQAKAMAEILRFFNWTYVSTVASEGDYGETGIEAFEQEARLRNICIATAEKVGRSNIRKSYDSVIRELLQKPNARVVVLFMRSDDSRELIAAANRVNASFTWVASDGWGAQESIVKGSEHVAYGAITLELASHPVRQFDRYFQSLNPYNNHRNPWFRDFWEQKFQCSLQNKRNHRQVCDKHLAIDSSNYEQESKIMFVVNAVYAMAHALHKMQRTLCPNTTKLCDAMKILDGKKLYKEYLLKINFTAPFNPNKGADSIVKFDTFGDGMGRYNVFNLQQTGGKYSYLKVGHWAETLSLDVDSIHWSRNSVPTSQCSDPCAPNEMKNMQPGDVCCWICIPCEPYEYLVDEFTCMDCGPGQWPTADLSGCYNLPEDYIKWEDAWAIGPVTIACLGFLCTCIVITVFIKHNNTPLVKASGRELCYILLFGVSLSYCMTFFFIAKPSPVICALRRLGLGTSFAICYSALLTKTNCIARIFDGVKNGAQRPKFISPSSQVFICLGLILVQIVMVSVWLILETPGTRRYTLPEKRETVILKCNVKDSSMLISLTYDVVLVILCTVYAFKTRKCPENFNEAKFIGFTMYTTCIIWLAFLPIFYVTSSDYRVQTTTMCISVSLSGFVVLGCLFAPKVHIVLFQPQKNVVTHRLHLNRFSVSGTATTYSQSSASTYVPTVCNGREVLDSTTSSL
Summary of the method: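 Cells expressing rat mGlu3 were grown overnight at 37° C. under 5% CO2, then loaded with dye. After dye removal they received 20 μL of assay buffer and sat 10 minutes at room temperature. Calcium flux was read on a Hamamatsu FDSS7000, and fluorescence was expressed as fold over basal and normalized to the maximal glutamate response.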

rat mGlu5 = rat mGlu5 (Rattus norvegicus (Rat), UniProt P31424); assay: mGlu5 Ca2+ flux assay; assay type: cell-based; settings: for Fold selectivity (mGlu3 vs. mGlu5): ratio of rat mGlu5 EC50 or IC50 to rat mGlu3 IC50; for EC50: read-out: rat mGlu5 EC50 or IC50; for Emax at 30 µM: PAM, amplitude of response at 30 μM test compound as % of maximal response to glutamate, read-out: rat mGlu5 Glu max (%)
rat mGlu5, sequence (P31424 21-1203): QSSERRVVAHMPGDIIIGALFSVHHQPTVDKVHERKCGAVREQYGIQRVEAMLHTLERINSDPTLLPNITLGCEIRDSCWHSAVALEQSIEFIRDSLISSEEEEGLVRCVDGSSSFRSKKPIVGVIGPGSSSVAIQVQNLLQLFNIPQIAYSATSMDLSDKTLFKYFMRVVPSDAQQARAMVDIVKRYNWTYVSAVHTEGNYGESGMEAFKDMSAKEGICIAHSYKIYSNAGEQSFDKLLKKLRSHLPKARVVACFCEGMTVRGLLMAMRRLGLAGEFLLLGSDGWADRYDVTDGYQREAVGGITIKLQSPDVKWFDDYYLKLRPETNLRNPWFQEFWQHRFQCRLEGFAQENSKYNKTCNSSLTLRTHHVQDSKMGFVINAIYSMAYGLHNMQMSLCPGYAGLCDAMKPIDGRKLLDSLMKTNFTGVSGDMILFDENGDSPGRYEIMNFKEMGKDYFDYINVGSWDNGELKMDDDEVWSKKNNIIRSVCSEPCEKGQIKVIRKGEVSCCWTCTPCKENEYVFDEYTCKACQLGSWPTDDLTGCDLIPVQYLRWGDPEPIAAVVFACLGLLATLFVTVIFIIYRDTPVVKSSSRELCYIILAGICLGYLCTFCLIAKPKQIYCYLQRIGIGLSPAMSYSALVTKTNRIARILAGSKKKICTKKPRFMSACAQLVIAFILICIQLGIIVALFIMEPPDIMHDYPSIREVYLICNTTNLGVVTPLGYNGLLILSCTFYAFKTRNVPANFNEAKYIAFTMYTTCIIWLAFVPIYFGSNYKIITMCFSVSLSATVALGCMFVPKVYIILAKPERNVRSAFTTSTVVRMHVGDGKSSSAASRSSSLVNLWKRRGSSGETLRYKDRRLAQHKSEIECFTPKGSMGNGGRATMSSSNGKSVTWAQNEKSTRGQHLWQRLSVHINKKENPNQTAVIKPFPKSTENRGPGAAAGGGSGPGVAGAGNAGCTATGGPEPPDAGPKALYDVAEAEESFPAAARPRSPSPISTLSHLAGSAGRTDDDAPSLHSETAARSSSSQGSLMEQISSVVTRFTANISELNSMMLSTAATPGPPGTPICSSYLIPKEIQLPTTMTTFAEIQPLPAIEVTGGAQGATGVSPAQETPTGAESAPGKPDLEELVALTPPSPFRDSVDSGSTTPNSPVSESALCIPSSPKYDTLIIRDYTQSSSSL
Summary of the method: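 Transfected cells grown overnight at 37° C/5% CO2, dye-loaded, then 5 min in assay buffer at RT before Ca2+ flux read on FDSS7000. Fluorescence as F/F0 fold over basal, normalized to maximal glutamate response; EC50 from unconstrained 4-parameter logistic fit, triplicates weighted evenly.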

SMILES: C[C@@H]1CN(c2ccc(F)cc2)C(=O)c2cc(CNc3ccc(OC(F)F)cc3)nn21 [Compound 64, (R)-2-(((4-(difluoromethoxy)phenyl)amino)methyl)-5-(4-fluorophenyl)-7-methyl-6,7-dihydropyrazolo[1,5-a]pyrazin-4(5H)-one]
IC50 (rat mGlu3): 1350 nM
remaining activity at 30 µM (rat mGlu3): 2.46%
Fold selectivity (mGlu3 vs. mGlu5) (rat mGlu5): >22
EC50 (rat mGlu5): > 30000 nM

SMILES: C[C@H]1CN(c2ccc(F)cc2)C(=O)c2cc(CNc3ccc(OC(F)F)cc3)nn21 [Compound 65, (S)-2-(((4-(difluoromethoxy)phenyl)amino)methyl)-5-(4-fluorophenyl)-7-methyl-6,7-dihydropyrazolo[1,5-a]pyrazin-4(5H)-one]
IC50 (rat mGlu3): 1340 nM
remaining activity at 30 µM (rat mGlu3): 2.16%
Fold selectivity (mGlu3 vs. mGlu5) (rat mGlu5): >22
EC50 (rat mGlu5): > 30000 nM

SMILES: C[C@@H]1CN(c2ccc(F)cc2)C(=O)c2cc(CNc3ccc(CC#N)cc3)nn21 [Compound 66, (R)-2-(4-(((5-(4-fluorophenyl)-7-methyl-4-oxo-4,5,6,7-tetrahydropyrazolo[1,5-a]pyrazin-2-yl)methyl)amino)phenyl)acetonitrile]
IC50 (rat mGlu3): 1460 nM
remaining activity at 30 µM (rat mGlu3): 0.95%
Fold selectivity (mGlu3 vs. mGlu5) (rat mGlu5): >20
EC50 (rat mGlu5): > 30000 nM

SMILES: C[C@H]1CN(c2ccc(F)cc2)C(=O)c2cc(CNc3ccc(CC#N)cc3)nn21 [Compound 67, (S)-2-(4-(((5-(4-fluorophenyl)-7-methyl-4-oxo-4,5,6,7-tetrahydropyrazolo[1,5-a]pyrazin-2-yl)methyl)amino)phenyl)acetonitrile]
IC50 (rat mGlu3): 2560 nM
remaining activity at 30 µM (rat mGlu3): 1.96%
Fold selectivity (mGlu3 vs. mGlu5) (rat mGlu5): >11
EC50 (rat mGlu5): > 30000 nM

SMILES: C[C@@H]1CN(c2ccc(F)cc2)C(=O)c2cc(CNc3cccc(F)c3F)nn21 [Compound 68, (R)-2-(((2,3-difluorophenyl)amino)methyl)-5-(4-fluorophenyl)-7-methyl-6,7-dihydropyrazolo[1,5-a]pyrazin-4(5H)-one]
IC50 (rat mGlu3): 1230 nM
remaining activity at 30 µM (rat mGlu3): 2.68%
Emax at 30 µM (rat mGlu5): 53.2%
Fold selectivity (mGlu3 vs. mGlu5) (rat mGlu5): >8.1
EC50 (rat mGlu5): > 10000 nM

SMILES: C[C@H]1CN(c2ccc(F)cc2)C(=O)c2cc(CNc3cccc(F)c3F)nn21 [Compound 69, (S)-2-(((2,3-difluorophenyl)amino)methyl)-5-(4-fluorophenyl)-7-methyl-6,7-dihydropyrazolo[1,5-a]pyrazin-4(5H)-one]
IC50 (rat mGlu3): 2220 nM
remaining activity at 30 µM (rat mGlu3): 2.19%
Emax at 30 µM (rat mGlu5): 89.1%
Fold selectivity (mGlu3 vs. mGlu5) (rat mGlu5): 2.59
EC50 (rat mGlu5): 5750 nM

SMILES: C[C@@H]1CN(c2ccc(F)cc2)C(=O)c2cc(CNc3cc(F)ccc3F)nn21 [Compound 70, (R)-2-(((2,5-difluorophenyl)amino)methyl)-5-(4-fluorophenyl)-7-methyl-6,7-dihydropyrazolo[1,5-a]pyrazin-4(5H)-one]
IC50 (rat mGlu3): 1140 nM
remaining activity at 30 µM (rat mGlu3): 2.67%
Emax at 30 µM (rat mGlu5): 57.5%
Fold selectivity (mGlu3 vs. mGlu5) (rat mGlu5): >8.7
EC50 (rat mGlu5): > 10000 nM

SMILES: C[C@H]1CN(c2ccc(F)cc2)C(=O)c2cc(CNc3cc(F)ccc3F)nn21 [Compound 71, (S)-2-(((2,5-difluorophenyl)amino)methyl)-5-(4-fluorophenyl)-7-methyl-6,7-dihydropyrazolo[1,5-a]pyrazin-4(5H)-one]
IC50 (rat mGlu3): 1310 nM
remaining activity at 30 µM (rat mGlu3): 1.6%
Emax at 30 µM (rat mGlu5): 76.6%
Fold selectivity (mGlu3 vs. mGlu5) (rat mGlu5): 7.33
EC50 (rat mGlu5): 9600 nM

remaining activity at 30 µM (rat mGlu3): 4.1%
Emax at 30 µM (rat mGlu5): 59.9%
SMILES: C[C@@H]1CN(c2ccc(F)cc2)C(=O)c2cc(CNc3c(F)cccc3F)nn21 [Compound 72, (R)-2-(((2,6-difluorophenyl)amino)methyl)-5-(4-fluorophenyl)-7-methyl-6,7-dihydropyrazolo[1,5-a]pyrazin-4(5H)-one]

remaining activity at 30 µM (rat mGlu3): 4.07%
Emax at 30 µM (rat mGlu5): 63.9%
SMILES: C[C@H]1CN(c2ccc(F)cc2)C(=O)c2cc(CNc3c(F)cccc3F)nn21 [Compound 73, (S)-2-(((2,6-difluorophenyl)amino)methyl)-5-(4-fluorophenyl)-7-methyl-6,7-dihydropyrazolo[1,5-a]pyrazin-4(5H)-one]

SMILES: C[C@H]1CN(c2ccc(F)cc2)C(=O)c2cc(CNc3cc(F)cc(F)c3)nn21 [Compound 74, (S)-2-(((3,5-difluorophenyl)amino)methyl)-5-(4-fluorophenyl)-7-methyl-6,7-dihydropyrazolo[1,5-a]pyrazin-4(5H)-one]
IC50 (rat mGlu3): 2350 nM
remaining activity at 30 µM (rat mGlu3): -2.19%
Emax at 30 µM (rat mGlu5): 59.3%
Fold selectivity (mGlu3 vs. mGlu5) (rat mGlu5): >4.2
EC50 (rat mGlu5): > 10000 nM

SMILES: C[C@@H]1CN(c2ccc(F)cc2)C(=O)c2cc(CNc3ccc(F)cc3F)nn21 [Compound 75, (R)-2-(((2,4-difluorophenyl)amino)methyl)-5-(4-fluorophenyl)-7-methyl-6,7-dihydropyrazolo[1,5-a]pyrazin-4(5H)-one]
IC50 (rat mGlu3): 771 nM
remaining activity at 30 µM (rat mGlu3): 2.66%
Emax at 30 µM (rat mGlu5): 85.6%
Fold selectivity (mGlu3 vs. mGlu5) (rat mGlu5): 7.56
EC50 (rat mGlu5): 5830 nM

SMILES: C[C@H]1CN(c2ccc(F)cc2)C(=O)c2cc(CNc3ccc(F)cc3F)nn21 [Compound 76, (S)-2-(((2,4-difluorophenyl)amino)methyl)-5-(4-fluorophenyl)-7-methyl-6,7-dihydropyrazolo[1,5-a]pyrazin-4(5H)-one]
IC50 (rat mGlu3): 1170 nM
remaining activity at 30 µM (rat mGlu3): 0.35%
Emax at 30 µM (rat mGlu5): 86.1%
Fold selectivity (mGlu3 vs. mGlu5) (rat mGlu5): 7.00
EC50 (rat mGlu5): 8190 nM

SMILES: C[C@@H]1CN(c2ccc(F)cc2)C(=O)c2cc(CNc3ccc(F)c(F)c3)nn21 [Compound 77, (R)-2-(((3,4-difluorophenyl)amino)methyl)-5-(4-fluorophenyl)-7-methyl-6,7-dihydropyrazolo[1,5-a]pyrazin-4(5H)-one]
IC50 (rat mGlu3): 1570 nM
remaining activity at 30 µM (rat mGlu3): 3.77%
Fold selectivity (mGlu3 vs. mGlu5) (rat mGlu5): >19
EC50 (rat mGlu5): > 30000 nM

SMILES: C[C@H]1CN(c2ccc(F)cc2)C(=O)c2cc(CNc3ccc(F)c(F)c3)nn21 [Compound 78, (S)-2-(((3,4-difluorophenyl)amino)methyl)-5-(4-fluorophenyl)-7-methyl-6,7-dihydropyrazolo[1,5-a]pyrazin-4(5H)-one]
IC50 (rat mGlu3): 1170 nM
remaining activity at 30 µM (rat mGlu3): 1.23%
Emax at 30 µM (rat mGlu5): 61.6%
Fold selectivity (mGlu3 vs. mGlu5) (rat mGlu5): >8.5
EC50 (rat mGlu5): > 10000 nM

SMILES: C[C@@H]1CN(c2ccc(F)cc2)C(=O)c2cc(CNc3c(F)cc(F)cc3F)nn21 [Compound 79, (R)-5-(4-fluorophenyl)-7-methyl-2-(((2,4,6-trifluorophenyl)amino)methyl)-6,7-dihydropyrazolo[1,5-a]pyrazin-4(5H)-one]
IC50 (rat mGlu3): 1280 nM
remaining activity at 30 µM (rat mGlu3): 1.49%
Emax at 30 µM (rat mGlu5): 40%
Fold selectivity (mGlu3 vs. mGlu5) (rat mGlu5): >7.8
EC50 (rat mGlu5): > 10000 nM

SMILES: C[C@H]1CN(c2ccc(F)cc2)C(=O)c2cc(CNc3c(F)cc(F)cc3F)nn21 [Compound 80, (S)-5-(4-fluorophenyl)-7-methyl-2-(((2,4,6-trifluorophenyl)amino)methyl)-6,7-dihydropyrazolo[1,5-a]pyrazin-4(5H)-one]
IC50 (rat mGlu3): 4320 nM
remaining activity at 30 µM (rat mGlu3): -0.58%
Emax at 30 µM (rat mGlu5): 95.8%
Fold selectivity (mGlu3 vs. mGlu5) (rat mGlu5): 1.79
EC50 (rat mGlu5): 7750 nM

SMILES: COc1ccc(NCc2cc3n(n2)CCN(c2ccc(Cl)cc2)C3=O)cc1 [Compound 81, 5-(4-chlorophenyl)-2-(((4-methoxyphenyl)amino)methyl)-6,7-dihydropyrazolo[1,5-a]pyrazin-4(5H)-one]
IC50 (rat mGlu3): 1360 nM
remaining activity at 30 µM (rat mGlu3): 15.4%
Fold selectivity (mGlu3 vs. mGlu5) (rat mGlu5): >22
EC50 (rat mGlu5): > 30000 nM
